US4166852A, “Piperazino-pyrimidines and their use as spasmolytic agents” (priority 1974, dated 1979)
In brackets after ≈: the same amount, converted by molar mass. Where a name gives a salt, the structure may show the parent alone. Read-outs that look alike come from different tables or passages of the source.

Assays:
head twitch = assay: anti-serotonine activity, head twitch; format: in vivo, CD 1 (Charles RIVER) mice; conditions: Mus musculus, po; mice, orally; read-out: "Head-twitch" AD 50
Source text: (§1) The anti-serotonine activities of the compounds according to the invention have been shown by oral administration to the CD (Charles RIVER) rats using the technique of the serotonine plantar oedema (W. Theobald and R. Domenjoz--Arzneimittel Forsch, 8, 18, 1958 and with the CD 1 (Charles RIVER) mice using the technique known as "head twitch" according to S. J. Corne, R. W. Pickering and B. T. Warner, Brit. J. Pharmacol., 20, 106, (1963). The anti-serotonine activity has also been determined on the one hand on the tricoloured guinea-pig, given intravenously, according to a method derived from H. Konzet and R. Rossler, Arch. exp. Pathol, Pharmakol., 195, 71, (1940) and on the other hand in vitro with respect to the serotonine spasm of the isolated uterus of the rat according to the technique of A. Fanchamps, W. Doepfener, H. Weidman and A. Cerletti, Schw. Med. Worsch, 90, 1940, (1960).

[1] = acute toxicity, LD 50, CD 1 mice; format: in vivo; conditions: mouse, in vivo
Source text: The acute toxicities of the compounds according to the invention have been determined on CD 1 (Charles RIVER) mice by intravenous and oral methods. The LD 50 of each compound has been calculated by the cumulative method of J. J. Reed and H. Muench, (Amer. J. Hyg., 1938, 27, 493).

[2] = test system: isolated duodenum of the rabbit (acetylcholine); assay: spasmolytic effect on isolated duodenum, acetylcholine spasm; format: cell-based; conditions: Oryctolagus cuniculus, read-out: Spasmolytic effects EC 50 with respect to acetylcholine
Source text: (§2) Ges. Physiol., 102, 123, (1904) with respect to the spasms of the isolated duodenum of rabbits caused either by acetylchlorine for the spasmolytic nemotropes or by barium chloride for the spasmolytic musculotropes.

[3] = test system: isolated duodenum of the rabbit (barium chloride); assay: spasmolytic effect on isolated duodenum, barium chloride spasm; format: cell-based; conditions: Oryctolagus cuniculus, read-out: Spasmolytic effects EC 50 with respect to barium chloride
Source text: as §2

rat = assay: catalepsy test, rat; format: in vivo, CD rat (Charles RIVER); conditions: po, orally, read-out: Catalepsy AD 50
Source text: (§3) The neuroloptic effects of the compounds according to the invention have been shown with respect to the CD rat (Charles RIVER) taken orally in the catalepsy test according to S. COURVOISIER, R. DUCROT, and L. JULOU, in Psychotropic Drugs, S. GARATTINI and V. GHETTI, Edit.--ELSEVIER Publ. Co., AMSTERDAM, LONDON, NEW YORK, PRINCETON, 1957 P. 373 and also in the traction test of CD1 (Charles RIVER) mice taken orally S. COURVOISIER, Quart. Rev. Psychiat. Neurol. 17, 25 (1956), on the one hand and also in the spontaneous motility test.

dogs = assay: anti-emetic activity, apomorphine vomiting test on dogs; format: in vivo; conditions: for ED50: Canis lupus familiaris, po, read-out: Anti-emetic activity on dogs ED 50
Source text: The anti-emetic properties of the compounds according to the invention have been shown by oral administration of apomorphine to dogs in the vomiting test according to G. Chen and C. J. Ensor, Pharmacol. exp. Therap., 98, 24 (1950).

mice = assay: analgesic activity, painful abdominal torsions test with phenylbenzoquinone; format: in vivo, CD 1 (Charles RIVER) mice; conditions: Mus musculus, po; mice, orally; read-out: Phenylbenzoquinone test on mice AD 50
Source text: The analgesic properties of the products according to the invention have been shown with CD 1 (Charles RIVER) mice in the painful abdominal torsions test with phenylbenzoquinone according to the technique of E. Siegmund, R. Cadmus and Go.Lu--Proc. Soc. Exp. Biol. Med., 95, 729, (1957).

serotonine bronchospasms = assay: anti-serotonine activity, serotonine bronchospasms; format: in vivo, tricoloured guinea-pig; conditions: Cavia porcellus, iv; guinea pig, intravenously; read-out: Serotonine bronchospasms ED 50
Source text: as §1

[4] = test system: serotonine plantar oedema; assay: anti-serotonine activity, serotonine plantar oedema; format: in vivo, CD (Charles RIVER) rats; conditions: po; rat, orally; read-out: Serotonine plantar oedema AD 50
Source text: as §1

mouse [5] = assay: spontaneous motility test (hypomotility), mouse; format: in vivo, mice; conditions: po, 1 h, orally, 60 minutes before measuring, 50% reduction of mean motility, first 5 minutes, read-out: Hypomotility ED 50
Source text: as §3
This latter technique comprises keeping an account of the displacements of the mice by means of a floor of metal strips which enables the spontaneous activity of the animals to be recorded during the first 5 minutes subsequent to their being introduced into the measuring chamber. The products are dispensed 60 minutes before measuring is effected and 10 mice are used per dose. The results are expressed in ED 50 which represents the dose of substance capable of reducing the mean motility of the treated animals by 50% relative to that of the sample group which has only received the dispensing carrier.

solubility = format: physicochemical
mouse [6] = assay: traction test, mouse; format: in vivo, CD1 (Charles RIVER) mice; conditions: po, orally, read-out: Traction AD 50
Source text: as §3

[7] = intravenous, read-out: Acute toxicity for mice LD 50, intravenous
[8] = oral, read-out: Acute toxicity for mice LD 50, orally

Compound: CNc1nc(Cl)c(SC)c(N2CCN(c3ccccc3)CC2)n1 [Example 7, 4-N-phenylpiperazino-2-methylamino-6-chloro-5-methylthio-pyrimidine]
- ED50 (head twitch): 400 mg/kg

Compound: CSc1c(Cl)nc(NC(C)(C)C)nc1N1CCN(C)CC1 [Example 3, 2-t-butylamino-4-N-methylpiperazino-5-methylthio-6-chloro-pyrimidine]
- LD50 [1, 7]: 67 mg/kg
- LD50 [1, 8]: ~600 mg/kg
- EC50 [2]: 2.5 µg/mL (≈ 7.58 µM)
- ED50 (head twitch): 300 mg/kg
- EC50 [3]: 0.5 µg/mL (≈ 1.52 µM)

Compound: CNc1nc(Cl)c(SC)c(N2CCNCC2)n1 [Example 10, 2-Methylamino-4-piperazino-6-chloro-5-methylthio-pyrimidine hydrochloride]
- ED50 (rat): 75 mg/kg
- LD50 [1, 7]: 57 mg/kg
- LD50 [1, 8]: ~225 mg/kg
- ED50 (dogs): 0.07 mg/kg
- anti-vomiting ranking (dogs; comparison within the series, dogs): the most strong anti-vomiting agents
- ED50 (mice): 65 mg/kg

Compound: CCN(CC)c1nc(Cl)c(SC)c(N2CCN(C)CC2)n1 [Example 15, 2-N-diethylamino-4-N-methylpiperazino-5-methylthio-6-chloro-pyrimidine dihydrobromide]
- LD50 [1, 7]: 123 mg/kg
- LD50 [1, 8]: ~600 mg/kg
- EC50 [2]: 5 µg/mL
- ED50 (mice): 300 mg/kg
- EC50 [3]: 4 µg/mL

Compound: CNc1nc(OC)c(SC)c(N2CCN(C)CC2)n1 [Example 17, 2-Methylamino-4-N-methylpiperazino-5-methyl-thio-6-methoxy-pyrimidine hydrochloride]
- LD50 [1, 7]: 58 mg/kg
- LD50 [1, 8]: ~400 mg/kg
- ED50 (serotonine bronchospasms): 3 mg/kg
- ED50 [4]: 100 mg/kg
- ED50 (dogs): 1.4 mg/kg

Compound: C=CCOc1nc(NC)nc(N2CCN(C)CC2)c1SC [Example 19, 2-methylamino-4-N-methylpiperazino-5-methylthio-6-allyloxy-pyrimidine hydrochloride]
- LD50 [1, 7]: 56 mg/kg
- LD50 [1, 8]: ~400 mg/kg
- ED50 [4]: > 100 mg/kg
- EC50 [2]: > 5 µg/mL
- ED50 (dogs; dogs, orally, apomorphine): 1.5 mg/kg
- ED50 (mice): 100 mg/kg
- EC50 [3]: 3.1 µg/mL

Compound: CSc1c(Cl)nc(N2CCN(C)CC2)nc1N1CCN(C)CC1 [Example 9, Bis-2,4-(N-methylpiperazino)-6-chloro-5-methylthio-pyrimidine hydrochloride]
- LD50 [1, 7]: 83 mg/kg
- LD50 [1, 8]: ~675 mg/kg
- EC50 [2]: > 10 µg/mL
- ED50 (head twitch): 300 mg/kg
- ED50 (mice): 150 mg/kg
- EC50 [3]: 3.6 µg/mL

Compound: CSc1c(Cl)nc(NCCO)nc1N1CCN(C)CC1 [Example 22, 2-N-(β-hydroxyethyl)amino-4-N-methylpiperazino-6-chloro-5-methylthiopyrimidine]
- LD50 [1, 7]: 89 mg/kg
- LD50 [1, 8]: ~600 mg/kg
- ED50 (serotonine bronchospasms): 0.16 mg/kg
- EC50 [2]: > 10 µg/mL
- ED50 (mouse [5]): 100 mg/kg
- ED50 (dogs; dogs, orally, apomorphine): 0.85 mg/kg
- ED50 (head twitch): > 100 mg/kg
- solubility in dilute hydrochloric acid (solubility): soluble
- solubility in ethanol (alcohol) (solubility): soluble
- solubility in water (solubility): insoluble
- ED50 (mice): > 100 mg/kg
- EC50 [3]: > 10 µg/mL

Compound: COc1ccc(Nc2nc(Cl)c(SC)c(N3CCN(C)CC3)n2)cc1 [Example 32, 4'-methoxy-2-phenylamino-4-N-methylpiperazino-6-chloro-5-methylthiopyrimidine]
- LD50 [1, 7]: 83 mg/kg
- LD50 [1, 8]: ~495 mg/kg
- ED50 (serotonine bronchospasms): 0.9 mg/kg
- EC50 [2]: 5.5 µg/mL (≈ 14.5 µM)
- ED50 (mouse [5]): 60 mg/kg
- ED50 (head twitch): 27 mg/kg
- solubility in dilute hydrochloric acid (solubility): soluble
- solubility in water (solubility): insoluble
- ED50 (mice): > 35 mg/kg

Compound: CCCOc1nc(NC)nc(N2CCN(C)CC2)c1SC [Example 18, 2-Methylamino-4-N-methylpiperazino-5-methylthio-6-propoxy-pyrimidine hydrochloride]
- LD50 [1, 7]: 63 mg/kg
- LD50 [1, 8]: ~525 mg/kg
- EC50 [2]: > 5 µg/mL
- ED50 (dogs; dogs, orally, apomorphine): 3.9 mg/kg
- EC50 [3]: 2.1 µg/mL

Compound: CSc1c(Cl)nc(N2CCOCC2)nc1N1CCN(C)CC1 [Example 28, 2-Morpholino-4-N-methylpiperazino-6-chloro-5-methylthiopyrimidine]
- LD50 [1, 7]: 110 mg/kg
- LD50 [1, 8]: ~400 mg/kg
- ED50 (serotonine bronchospasms): > 0.1 mg/kg
- ED50 [4]: > 100 mg/kg
- EC50 [2]: 4.5 µg/mL (≈ 13.1 µM)
- ED50 (mouse [5]): 100 mg/kg
- ED50 (dogs; dogs, orally, apomorphine): > 5 mg/kg
- ED50 (head twitch): 70 mg/kg
- solubility in dilute hydrochloric acid (solubility): soluble
- solubility in ethanol (alcohol) (solubility): soluble
- solubility in water (solubility): insoluble
- ED50 (mice): > 100 mg/kg
- EC50 [3]: 1.7 µg/mL (≈ 4.94 µM)

Compound: CSc1c(Cl)nc(N(C)c2ccccc2)nc1N1CCN(C)CC1 [Example 12, 2-(N-methyl-N-phenyl)amino-4-N-methylpiperazino-5-methylthio-6-chloro-pyrimidine hydrochloride]
- LD50 [1, 7]: 113 mg/kg
- LD50 [1, 8]: ~525 mg/kg
- EC50 [2]: 3 µg/mL
- ED50 (mice): 100 mg/kg
- EC50 [3]: 2.2 µg/mL

Compound: CSc1c(Cl)nc(NC(C)C)nc1N1CCN(C)CC1 [Example 2, 2-Isopropylamino-4-N-methyl-piperazino-6-chloro-5-methylthio-pyrimidine]
- LD50 [1, 7]: 79 mg/kg
- LD50 [1, 8]: ~525 mg/kg
- EC50 [2]: 5 µg/mL (≈ 15.8 µM)
- ED50 (dogs; dogs, orally, apomorphine): 0.12 mg/kg
- ED50 (mice): 65 mg/kg
- EC50 [3]: 1.2 µg/mL (≈ 3.8 µM)

Compound: CSc1c(Cl)nc(N)nc1N1CCN(C)CC1 [Example 6, 2-Amino-4-N-methylpiperazino-6-chloro-5-methylthio-pyrimidine hydrochloride]
- ED50 (rat): 100 mg/kg
- LD50 [1, 7]: 33 mg/kg
- LD50 [1, 8]: ~225 mg/kg
- ED50 (serotonine bronchospasms): 1.2 mg/kg
- ED50 (dogs): 0.11 mg/kg
- ED50 (head twitch): 30 mg/kg
- ED50 (mouse [6]): > 100 mg/kg

Compound: CSc1c(Cl)nc(N2CCCCC2)nc1N1CCN(C)CC1 [Example 11, 2-Piperidino-4-methylpiperazino-5-methylthio-6-chloro-pyrimidine hydrochloride]
- LD50 [1, 7]: 115 mg/kg
- LD50 [1, 8]: ~525 mg/kg
- EC50 [2]: 2.5 µg/mL
- EC50 [3]: 2.2 µg/mL

Compound: C=CCNc1nc(Cl)c(SC)c(N2CCN(C)CC2)n1 [Example 21, 2-Allylamino-4-N-methylpiperazino-6-chloro-5-methylthio-pyrimidine]
- ED50 (rat): 300 mg/kg
- LD50 [1, 7]: 46 mg/kg
- LD50 [1, 8]: ~200 mg/kg
- ED50 (serotonine bronchospasms): 0.01 mg/kg
- ED50 [4]: > 100 mg/kg
- EC50 [2]: 1.6 µg/mL (≈ 5.1 µM)
- ED50 (mouse [5]): 28 mg/kg
- ED50 (dogs; dogs, orally, apomorphine): 0.8 mg/kg
- ED50 (head twitch): 20 mg/kg
- solubility in dilute hydrochloric acid (solubility): soluble
- solubility in ethanol (alcohol) (solubility): soluble
- solubility in water (solubility): water-insoluble
- ED50 (mice): > 100 mg/kg
- EC50 [3]: 1 µg/mL (≈ 3.19 µM)

Compound: CSc1c(Cl)nc(N(C)C(=O)c2ccccc2)nc1N1CCN(C)CC1 [Example 13, 2-(N-methyl-N-benzoyl)amino-4-N-methyl-piperazino-6-chloro-5-methylthio-pyrimidine hydrochloride]
- LD50 [1, 7]: 91 mg/kg
- LD50 [1, 8]: ~600 mg/kg
- ED50 [4]: > 300 mg/kg
- EC50 [2]: 4 µg/mL
- ED50 (dogs; dogs, orally, apomorphine): 1.9 mg/kg
- ED50 (head twitch): 300 mg/kg
- EC50 [3]: 2.6 µg/mL

Compound: CNc1nc(Cl)c(SC)c(N2CCN(CCO)CC2)n1 [Example 8, 2-Methylamino-4-N-(β-hydroxyethyl)-piperazino-6-chloro-5-methylthio-pyrimidine]
- LD50 [1, 7]: 124 mg/kg
- LD50 [1, 8]: ~525 mg/kg
- EC50 [2]: 5 µg/mL (≈ 15.7 µM)
- ED50 (dogs; dogs, orally, apomorphine): 0.25 mg/kg
- EC50 [3]: 1.3 µg/mL (≈ 4.09 µM)
